In assay [1] the target is T1, full-length beta-Catenin (Uniprot ID P35222) (Homo sapiens, UniProt P35222).
T1 construct: 10 nM full-length beta-Catenin (Uniprot ID P35222)
T1 sequence (P35222 1-781): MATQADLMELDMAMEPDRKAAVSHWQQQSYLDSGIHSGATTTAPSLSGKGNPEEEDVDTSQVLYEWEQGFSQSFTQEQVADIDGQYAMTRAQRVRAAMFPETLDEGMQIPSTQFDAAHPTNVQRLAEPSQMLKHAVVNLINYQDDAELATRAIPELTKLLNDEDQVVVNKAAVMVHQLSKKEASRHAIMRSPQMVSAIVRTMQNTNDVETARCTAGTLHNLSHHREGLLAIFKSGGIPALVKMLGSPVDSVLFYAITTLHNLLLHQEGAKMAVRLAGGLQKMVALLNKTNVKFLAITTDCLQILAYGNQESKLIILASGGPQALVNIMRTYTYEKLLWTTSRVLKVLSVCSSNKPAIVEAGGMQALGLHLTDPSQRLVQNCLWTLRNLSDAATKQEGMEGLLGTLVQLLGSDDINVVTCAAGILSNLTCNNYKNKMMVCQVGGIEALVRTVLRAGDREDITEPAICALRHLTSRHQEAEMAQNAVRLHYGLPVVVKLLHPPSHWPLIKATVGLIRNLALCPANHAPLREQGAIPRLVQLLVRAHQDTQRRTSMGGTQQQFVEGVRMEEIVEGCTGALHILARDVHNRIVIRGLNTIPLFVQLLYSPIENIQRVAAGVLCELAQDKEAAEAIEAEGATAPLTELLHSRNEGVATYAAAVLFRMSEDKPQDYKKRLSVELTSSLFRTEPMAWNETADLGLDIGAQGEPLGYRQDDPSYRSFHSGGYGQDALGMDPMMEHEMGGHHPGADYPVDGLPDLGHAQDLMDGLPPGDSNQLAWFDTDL
In words: Fluorescence polarization IC50 (beta-catenin / 5FAM-TCF4 10-53 competition). Conditions: fluorescence polarization; read-out: beta-Catenin FP IC50. It counts as binding.

For assay [2], the target named is T2, beta-catenin/TCF4 engagement (Homo sapiens, UniProt P35222).
T2 construct: expressed in transfected cells; host or cells: HEK293
T2 sequence (P35222 1-781): T1 sequence (P35222 1-781)
In words: Nano-BRET target engagement assay (B-cat-Halo & TCF4-Luc in HEK293 cells). The assay is classed as cell-based. Conditions: absolute IC50; read-out: NanoBRET Abs IC50.

Bounds are passed on as bounds.

In the case of `CC(=O)N1CCC[C@]12CC=CCCCC1(CCCC=CCCCOC(=O)N3CC[C@@](C(=O)N[C@@H](Cc4ccccc4C)C(=O)N[C@@H](Cc4csc5ccccc45)C(=O)N[C@@H](CCC(N)=O)C(N)=O)(C3)NC(=O)[C@H](CC(C)C)NC(=O)[C@H](Cc3ccccc3)NC(=O)[C@H](C)NC(=O)[C@H](C)NC(=O)[C@H](CN(CC(=O)O)CC(F)(F)F)NC(=O)[C@H](CC(=O)O)NC1=O)NC(=O)[C@H](CC(C)(C)C)NC(=O)[C@H](CC(=O)O)NC2=O` (stereo partly drawn) [I-1725, Ac-PL3-Asp-Npg-B5-Asp-TfeGA-Ala-Ala-Phe-Leu-PyrS2-2MeF-BztA-Gln-NH2], the IC50 in assay [1] stood at 0.015 µM; in assay [2], 10 µM.
On to `CC(=O)N1CCC[C@]12CCCCCCC1(CCCCCCCCOC(=O)N3CC[C@@](C(=O)N[C@@H](Cc4ccccc4C)C(=O)N[C@@H](Cc4csc5ccccc45)C(=O)N[C@@H](CCC(N)=O)C(N)=O)(C3)NC(=O)[C@H](CC(C)C)NC(=O)[C@H](Cc3ccccc3)NC(=O)[C@H](C)NC(=O)[C@H](C)NC(=O)[C@H](CN(CC(=O)O)CC(F)(F)F)NC(=O)[C@H](CC(=O)O)NC1=O)NC(=O)[C@H](CC(C)(C)C)NC(=O)[C@H](CC(=O)O)NC2=O` (stereo partly drawn) [I-1726, Ac-PL3-Asp-Npg-B5-Asp-TfeGA-Ala-Ala-Phe-Leu-PyrS2-2MeF-BztA-Gln-NH2], for which the IC50 in assay [1] is 0.274 µM; in assay [2], > 20 µM.
On the same counts, the results for `CC(=O)N1CCC[C@]12CC=CCCCC1(CCCC=CCCCOC(=O)N3CC[C@@](C(=O)N[C@@H](Cc4ccsc4)C(=O)N[C@@H](Cc4csc5ccccc45)C(=O)N[C@@H](CCC(N)=O)C(N)=O)(C3)NC(=O)[C@H](CC(C)C)NC(=O)[C@H](Cc3ccccc3)NC(=O)[C@H](C)NC(=O)[C@H](C)NC(=O)[C@H](CNCC(=O)O)NC(=O)[C@H](CC(=O)O)NC1=O)NC(=O)[C@H](CC(C)(C)C)NC(=O)[C@H](CC(=O)O)NC2=O` (stereo partly drawn) [I-1731, Ac-PL3-Asp-Npg-B5-Asp-GA-Ala-Ala-Phe-Leu-PyrS2-3Thi-BztA-Gln-NH2] are 0.025 µM and 29.5 µM.
On to `CC(=O)N1CCC[C@]12CC=CCCCC1(CCCC=CCCCOC(=O)N3CC[C@@](C(=O)N[C@@H](Cc4ccsc4)C(=O)N[C@@H](Cc4csc5ccccc45)C(=O)N[C@@H](CCC(N)=O)C(N)=O)(C3)NC(=O)[C@H](CC(N)=O)NC(=O)[C@H](Cc3ccccc3)NC(=O)[C@H](C)NC(=O)[C@H](C)NC(=O)[C@H](CNCC(=O)O)NC(=O)[C@H](CC(=O)O)NC1=O)NC(=O)[C@H](CC(C)(C)C)NC(=O)[C@H](CC(=O)O)NC2=O` (stereo partly drawn) [I-1732, Ac-PL3-Asp-Npg-B5-Asp-GA-Ala-Ala-Phe-Asn-PyrS2-3Thi-BztA-Gln-NH2], for which the IC50 in assay [1] was 0.011 µM; in assay [2], > 20 µM.
As for `CC(=O)N1CCC[C@]12CC=CCCCC1(CCCC=CCCCOC(=O)N3CC[C@@](C(=O)N[C@@H](Cc4ccsc4)C(=O)N[C@@H](Cc4csc5ccccc45)C(=O)N[C@@H](CCC(N)=O)C(N)=O)(C3)NC(=O)[C@H](CC(N)=O)NC(=O)[C@H](Cc3ccccc3)NC(=O)[C@H](C)NC(=O)[C@H](C)NC(=O)[C@H](CNCC(=O)O)NC(=O)[C@H](CC(=O)O)NC1=O)NC(=O)[C@H](CC(C)(C)C)NC(=O)[C@H](CC(=O)O)NC2=O` (stereo partly drawn) [I-1733, Ac-PL3-Asp-Npg-B5-Asp-GA-Ala-Ala-Phe-Asn-PyrS2-3Thi-BztA-Gln-NH2], the IC50 is 0.015 µM in assay [1] and > 20 µM in assay [2].
For `CC(=O)N1CCC[C@]12CC=CCCCC1(CCCC=CCCCOC(=O)N3CC[C@@](C(=O)N[C@@H](Cc4ccsc4)C(=O)N[C@@H](Cc4csc5ccccc45)C(=O)N[C@@H](CC(C)C)C(N)=O)(C3)NC(=O)[C@H](CC(C)C)NC(=O)[C@H](Cc3ccccc3)NC(=O)[C@H](C)NC(=O)[C@H](C)NC(=O)[C@H](CN(CC(=O)O)CC(F)(F)F)NC(=O)[C@H](CC(=O)O)NC1=O)NC(=O)[C@H](CC(C)(C)C)NC(=O)[C@H](CC(=O)O)NC2=O` (stereo partly drawn) [I-1747, Ac-PL3-Asp-Npg-B5-Asp-TfeGA-Ala-Ala-Phe-Leu-PyrS2-3Thi-BztA-Leu-NH2], in that order: 0.187 µM and > 20 µM.
On the same counts, the results for `CC(=O)N1CCC[C@]12CC=CCCCC1(CCCC=CCCCOC(=O)N3CC[C@@](C(=O)N[C@@H](Cc4ccsc4)C(=O)N[C@@H](Cc4csc5ccccc45)C(=O)N[C@@H](CC(C)C)C(N)=O)(C3)NC(=O)[C@H](CC(C)C)NC(=O)[C@H](Cc3ccccc3)NC(=O)[C@H](C)NC(=O)[C@H](C)NC(=O)[C@H](CN(CC(=O)O)CC(F)(F)F)NC(=O)[C@H](CC(=O)O)NC1=O)NC(=O)[C@H](CC(C)(C)C)NC(=O)[C@H](CC(=O)O)NC2=O` (stereo partly drawn) [I-1748, Ac-PL3-Asp-Npg-B5-Asp-TfeGA-Ala-Ala-Phe-Leu-PyrS2-3Thi-BztA-Leu-NH2] are 0.141 µM and 20.2 µM.
For `CC(=O)N1CCC[C@]12CC=CCCCC1(CCCC=CCCCOC(=O)N3CC[C@@](C(=O)N[C@@H](Cc4ccsc4)C(=O)N[C@@H](Cc4csc5ccccc45)C(=O)N[C@@H](Cc4ccccc4)C(N)=O)(C3)NC(=O)[C@H](CC(C)C)NC(=O)[C@H](Cc3ccccc3)NC(=O)[C@H](C)NC(=O)[C@H](C)NC(=O)[C@H](CN(CC(=O)O)CC(F)(F)F)NC(=O)[C@H](CC(=O)O)NC1=O)NC(=O)[C@H](CC(C)(C)C)NC(=O)[C@H](CC(=O)O)NC2=O` (stereo partly drawn) [I-1750, Ac-PL3-Asp-Npg-B5-Asp-TfeGA-Ala-Ala-Phe-Leu-PyrS2-3Thi-BztA-Phe-NH2], the IC50 in assay [1] came to 0.104 µM; in assay [2], 23.7 µM.
For `CC(=O)N1CCC[C@]12CC=CCCCC1(CCCC=CCCCOC(=O)N3CC[C@@](C(=O)N[C@@H](Cc4ccsc4)C(=O)N[C@@H](Cc4csc5ccccc45)C(=O)N[C@@H](CC(C)C)C(N)=O)(C3)NC(=O)[C@H](CC(C)C)NC(=O)[C@H](Cc3ccccc3)NC(=O)[C@H](C)NC(=O)[C@H](CCCCNC(C)C)NC(=O)[C@H](CN(CC(=O)O)CC(F)(F)F)NC(=O)[C@H](CC(=O)O)NC1=O)NC(=O)[C@H](CC(C)(C)C)NC(=O)[C@H](CC(=O)O)NC2=O` (stereo partly drawn) [I-1759, Ac-PL3-Asp-Npg-B5-Asp-TfeGA-iPrLys-Ala-Phe-Leu-PyrS2-3Thi-BztA-Leu-NH2], in that order: 0.057 µM and > 20 µM.
On the same counts, the results for `CC(=O)N1CCC[C@]12CC=CCCCC1(CCCC=CCCCOC(=O)N3CC[C@@](C(=O)N[C@@H](Cc4ccsc4)C(=O)N[C@@H](Cc4csc5ccccc45)C(=O)N[C@@H](CC(C)C)C(N)=O)(C3)NC(=O)[C@H]([C@@H](C)O)NC(=O)[C@H](Cc3ccccc3)NC(=O)[C@H](C)NC(=O)[C@H](CCCCNC(C)C)NC(=O)[C@H](CN(CC(=O)O)CC(F)(F)F)NC(=O)[C@H](CC(=O)O)NC1=O)NC(=O)[C@H](CC(C)(C)C)NC(=O)[C@H](CC(=O)O)NC2=O` (stereo partly drawn) [I-1760, Ac-PL3-Asp-Npg-B5-Asp-TfeGA-iPrLys-Ala-Phe-Thr-PyrS2-3Thi-BztA-Leu-NH2] are 0.032 µM and > 20 µM.
On to `CC(=O)N1CCC[C@]12CC=CCCCC1(CCCC=CCCCOC(=O)N3CC[C@@](C(=O)N[C@@H](Cc4ccsc4)C(=O)N[C@@H](Cc4csc5ccccc45)C(=O)N[C@@H](Cc4ccccc4)C(N)=O)(C3)NC(=O)[C@H](CC(C)C)NC(=O)[C@H](Cc3ccccc3)NC(=O)[C@H](C)NC(=O)[C@H](CCCCNC(C)C)NC(=O)[C@H](CN(CC(=O)O)CC(F)(F)F)NC(=O)[C@H](CC(=O)O)NC1=O)NC(=O)[C@H](CC(C)(C)C)NC(=O)[C@H](CC(=O)O)NC2=O` (stereo partly drawn) [I-1761, Ac-PL3-Asp-Npg-B5-Asp-TfeGA-iPrLys-Ala-Phe-Leu-PyrS2-3Thi-BztA-Phe-NH2], for which the IC50 was 0.039 µM in assay [1] and > 20 µM in assay [2].
On the same counts, the results for `CC(=O)N1CCC[C@]12CC=CCCCC1(CCCC=CCCCOC(=O)N3CC[C@@](C(=O)N[C@@H](Cc4ccsc4)C(=O)N[C@@H](Cc4csc5ccccc45)C(=O)N[C@@H](Cc4ccccc4)C(N)=O)(C3)NC(=O)[C@H]([C@@H](C)O)NC(=O)[C@H](Cc3ccccc3)NC(=O)[C@H](C)NC(=O)[C@H](CCCCNC(C)C)NC(=O)[C@H](CN(CC(=O)O)CC(F)(F)F)NC(=O)[C@H](CC(=O)O)NC1=O)NC(=O)[C@H](CC(C)(C)C)NC(=O)[C@H](CC(=O)O)NC2=O` (stereo partly drawn) [I-1762, Ac-PL3-Asp-Npg-B5-Asp-TfeGA-iPrLys-Ala-Phe-Thr-PyrS2-3Thi-BztA-Phe-NH2] are 0.013 µM and > 20 µM.
On to `CC(=O)N1CCC[C@]12CC=CCCCC1(CCCC=CCCCOC(=O)N3CC[C@@](C(=O)N[C@@H](Cc4ccsc4)C(=O)N[C@@H](Cc4csc5ccccc45)C(=O)N[C@H](C(N)=O)C(C)C)(C3)NC(=O)[C@H](CC(C)C)NC(=O)[C@H](Cc3ccccc3)NC(=O)[C@H](C)NC(=O)[C@H](CCCCNC(C)C)NC(=O)[C@H](CN(CC(=O)O)CC(F)(F)F)NC(=O)[C@H](CC(=O)O)NC1=O)NC(=O)[C@H](CC(C)(C)C)NC(=O)[C@H](CC(=O)O)NC2=O` (stereo partly drawn) [I-1763, Ac-PL3-Asp-Npg-B5-Asp-TfeGA-iPrLys-Ala-Phe-Leu-PyrS2-3Thi-BztA-Val-NH2], for which the IC50 in assay [1] is 0.052 µM; in assay [2] it was > 20 µM.

The record behind these values is patent US20240116985A1, “STAPLED PEPTIDES AND METHODS THEREOF” (priority 2020, published 2024).
